Measurements from ChEMBL document CHEMBL1154532, “Antibacterial alkoxybenzamide inhibitors of the essential bacterial cell division protein FtsZ” (2009).
≈ marks a conversion by molar mass, not a printed value.

Columns and labels:
Bacillus subtilis = assay: Antibacterial activity against Bacillus subtilis 168; assay type: functional
Staphylococcus aureus [1] = assay: Antibacterial activity against Staphylococcus aureus ATCC 29213; assay type: functional
[2] = biological target: T1, Cell division protein FtsZ (Bacillus subtilis (strain 168)) (UniProt P17865); assay: Inhibition of FtsZ-mediated cell division in Bacillus subtilis 168 assessed as drug concentration required to produce filamentation
T1 sequence (whole entry): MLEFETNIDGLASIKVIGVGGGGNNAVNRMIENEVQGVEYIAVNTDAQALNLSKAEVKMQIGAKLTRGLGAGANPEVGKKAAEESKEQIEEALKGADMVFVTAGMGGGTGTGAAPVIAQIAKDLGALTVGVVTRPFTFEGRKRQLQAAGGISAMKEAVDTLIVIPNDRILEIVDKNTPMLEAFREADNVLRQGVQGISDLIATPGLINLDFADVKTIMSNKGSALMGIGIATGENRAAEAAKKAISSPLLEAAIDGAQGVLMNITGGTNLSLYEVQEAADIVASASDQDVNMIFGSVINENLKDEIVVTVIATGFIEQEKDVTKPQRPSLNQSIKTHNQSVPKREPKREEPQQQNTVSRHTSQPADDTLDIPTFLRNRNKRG

Staphylococcus aureus [3] = assay: Antibacterial activity against methicillin-susceptible Staphylococcus aureus ATCC 601055; assay type: functional
Staphylococcus aureus [4] = assay: Antibacterial activity against Staphylococcus aureus ATCC 601055 with FtsZ P300R point mutation; assay type: functional
Staphylococcus aureus [5] = assay: Antibacterial activity against Staphylococcus aureus ATCC 601055 with FtsZ […] point mutation; assay type: functional
Staphylococcus aureus [6] = assay: Antibacterial activity against methicillin-resistant Staphylococcus aureus ATCC 607004; assay type: functional
Staphylococcus aureus [7] = assay: Antibacterial activity against methicillin-susceptible Staphylococcus aureus ATCC 19636; assay type: functional
[8] = test system: Staphylococcus epidermidis; assay: Antibacterial activity against Staphylococcus epidermidis ATCC 12228; assay type: functional
Staphylococcus aureus [9] = assay: Antibacterial activity against methicillin-resistant Staphylococcus aureus ATCC 700698; assay type: functional
Staphylococcus aureus [10] = assay: Antibacterial activity against methicillin-resistant Staphylococcus aureus ATCC 43300; assay type: functional
Staphylococcus aureus [11] = assay: Antibacterial activity against methicillin-susceptible Staphylococcus aureus ATCC 25923; assay type: functional
Staphylococcus aureus [12] = assay: Antibacterial activity against […] Staphylococcus aureus ATCC 29213; assay type: functional
[13] = biological target: T2, Cell division protein FtsZ (Staphylococcus aureus) (UniProt P0A031); assay: Inhibition of FtsZ-mediated cell division in Staphylococcus aureus ATCC 29213 assessed as drug concentration required to produce ballooning
T2 sequence (whole entry): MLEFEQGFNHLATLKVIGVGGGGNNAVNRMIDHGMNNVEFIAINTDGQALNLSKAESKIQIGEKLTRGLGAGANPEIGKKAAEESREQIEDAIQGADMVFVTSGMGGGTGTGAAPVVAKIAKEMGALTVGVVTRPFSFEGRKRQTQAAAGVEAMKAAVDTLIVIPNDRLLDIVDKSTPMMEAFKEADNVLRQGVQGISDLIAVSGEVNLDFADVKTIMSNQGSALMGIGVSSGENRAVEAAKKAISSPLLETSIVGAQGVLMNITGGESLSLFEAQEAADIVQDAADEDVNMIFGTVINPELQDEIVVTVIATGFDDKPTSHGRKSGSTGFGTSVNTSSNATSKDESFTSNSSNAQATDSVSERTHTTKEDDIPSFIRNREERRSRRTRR

MIC (Bacillus subtilis) [µg/mL] | MIC (Staphylococcus aureus [1]) [µg/mL] | Activity [2] [µg/mL] | SMILES | further results
> 4000 |  |  | COc1ccc(C(N)=O)cc1OC | 
2000 (≈ 12100 µM) | 1020 (≈ 6200 µM) | 500 | CCOc1cccc(C(N)=O)c1 | 
512 (≈ 3030 µM) | 512 (≈ 3030 µM) | 128 | COc1cccc(C(N)=O)c1F | 
> 4000 |  |  | COc1cccc(C(=O)O)c1 | 
128 (≈ 662 µM) | 128 (≈ 662 µM) | 24 | CCCCOc1cccc(C(N)=O)c1 | 
> 4000 |  |  | COc1cc(C(N)=O)ccc1[N+](=O)[O-] | 
32 (≈ 154 µM) | 32 (≈ 154 µM) | 24 | CCCCCOc1cccc(C(N)=O)c1 | 
> 4000 |  |  | COc1cc(OC)cc(C(N)=O)c1 | 
512 (≈ 2740 µM) | 512 (≈ 2740 µM) | 256 | COc1ccc(F)c(C(N)=O)c1F | 
> 4000 |  |  | COc1cccc(C(N)=O)c1C | 
 | > 256 | > 128 | CCCCCCCCCCCCOc1cccc(C(N)=O)c1 | 
> 4000 |  | 3000 | NC(=O)c1cccc(O)c1 | 
> 4000 |  |  | NC(=O)c1cccc(OC(F)(F)F)c1 | 
4000 (≈ 23900 µM) |  |  | COc1cccc(C(=O)NO)c1 | 
0.125 (≈ 0.418 µM) | 0.5 (≈ 1.67 µM) | 0.125 | CCCCCCCCCOc1ccc(F)c(C(N)=O)c1F | Activity [13]: 0.25 µg/mL
0.5 (≈ 1.58 µM) | 1 (≈ 3.17 µM) | 0.25 | CCCCCCCCCOc1ccc(Cl)c(C(N)=O)c1F | Activity [13]: 0.5 µg/mL
> 4000 |  | 2050 | COc1ccc(F)c(C(N)=O)c1Cl | 
0.125 (≈ 0.444 µM) | 0.5 (≈ 1.78 µM) | 0.125 | CCCCCCCCCOc1cccc(C(N)=O)c1F | Activity [13]: 0.5 µg/mL
> 4000 |  |  | COc1ccc(OC)c(C(N)=O)c1 | 
1 (≈ 3.6 µM) | 64 (≈ 231 µM) | 0.5 | CCCCCCCCCCOc1cccc(C(N)=O)c1 | 

MIC (Bacillus subtilis) [µg/mL] | MIC (Staphylococcus aureus [1]) [µg/mL] | Activity [2] [µg/mL] | SMILES | further results
> 4000 |  |  | COc1ccc(C(N)=O)cc1 | 
2000 (≈ 12000 µM) |  |  | COc1cccc(C(N)=S)c1 | 
> 4000 |  |  | COc1cccc(C(N)=O)c1[N+](=O)[O-] | 
0.5 (≈ 1.58 µM) | 2 (≈ 6.33 µM) | 0.5 | CCCCCCCCCOc1ccc(F)c(C(N)=O)c1Cl | Activity [13]: 1 µg/mL
> 4000 |  |  | CNC(=O)c1cccc(OC)c1 | 
> 4000 |  |  | COc1ccc([N+](=O)[O-])c(C(N)=O)c1 | 
> 2000 |  |  | Cc1cccc(C(N)=O)c1 | 
4 (≈ 17 µM) | 8 (≈ 34 µM) | 1.5 | CCCCCCCOc1cccc(C(N)=O)c1 | 
250 (≈ 1820 µM) |  |  | COc1cccc(CN)c1 | 
1 (≈ 3.55 µM) | 8 (≈ 28.4 µM) | 1 | CCCCCCCCCOc1ccc(F)c(C(N)=O)c1 | Activity [13]: 2 µg/mL
> 4000 |  |  | CNc1cccc(C(N)=O)c1 | 
> 4000 |  |  | COc1cccc(C(N)=O)c1OC | 
> 4000 |  |  | CSc1cccc(C(N)=O)c1 | 
> 4000 |  |  | COc1cc(C(N)=O)ccc1F | 
> 4000 |  |  | COc1cccc(CC(N)=O)c1 | 
1020 (≈ 5030 µM) |  | 256 | COc1ccc(Cl)c(C(N)=O)c1F | 
500 (≈ 2790 µM) | 256 (≈ 1430 µM) | 375 | CCCOc1cccc(C(N)=O)c1 | 
4 (≈ 13.7 µM) | > 256 | 1 | CCCCCCCCCCCOc1cccc(C(N)=O)c1 | 
1 (≈ 4.01 µM) | 4 (≈ 16 µM) | 0.37 | CCCCCCCCOc1cccc(C(N)=O)c1 | 
800 (≈ 4730 µM) |  |  | COc1ccc(F)c(C(N)=O)c1 | 

SMILES | MIC (Bacillus subtilis) [µg/mL] | MIC (Staphylococcus aureus [1]) [µg/mL] | Activity [2] [µg/mL] | further results
O=C(O)c1cn(C2CC2)c2cc(N3CCNCC3)c(F)cc2c1=O [CIPROFLOXACIN] |  | 0.5 (≈ 1.51 µM) |  | 
CC(=O)O[C@H]1C[C@@]2(C)[C@@H](C[C@@H](O)[C@H]3[C@@]4(C)CC[C@@H](O)[C@@H](C)[C@@H]4CC[C@@]32C)/C1=C(\CCC=C(C)C)C(=O)O [FUSIDIC ACID] |  | 0.06 (≈ 0.116 µM) |  | 
C/C(=C\C(=O)OCCCCCCCCC(=O)O)C[C@@H]1OC[C@H](C[C@@H]2O[C@H]2[C@@H](C)[C@H](C)O)[C@@H](O)[C@H]1O [MUPIROCIN] |  | 0.12 (≈ 0.24 µM) |  | 
CCCCCCCCCOc1cccc(C(N)=O)c1 | 0.5 (≈ 1.9 µM) | 2 (≈ 7.59 µM) | 0.18 | MIC (Staphylococcus aureus [3]): 2 µg/mL (≈ 7.59 µM); MIC (Staphylococcus aureus [4]): > 128 µg/mL; MIC (Staphylococcus aureus [5]): > 128 µg/mL
COc1cccc(C(N)=O)c1 | 4000 (≈ 26500 µM) | 2050 (≈ 13500 µM) | 500 | MIC (Staphylococcus aureus [3]): 4000 µg/mL (≈ 26500 µM); MIC (Staphylococcus aureus [6]): 4100 µg/mL (≈ 27100 µM); MIC (Staphylococcus aureus [4]): > 8000 µg/mL; MIC (Staphylococcus aureus [7]): 2050 µg/mL (≈ 13500 µM); MIC [8]: 4100 µg/mL (≈ 27100 µM); MIC (Staphylococcus aureus [9]): 4100 µg/mL (≈ 27100 µM); MIC (Staphylococcus aureus [10]): 4100 µg/mL (≈ 27100 µM); MIC (Staphylococcus aureus [11]): 4100 µg/mL (≈ 27100 µM); MIC (Staphylococcus aureus [5]): > 8000 µg/mL; MIC (Staphylococcus aureus [12]): 2050 µg/mL (≈ 13500 µM)
O=C(N[C@H](CO)[C@H](O)c1ccc([N+](=O)[O-])cc1)C(Cl)Cl [CHLORAMPHENICOL] |  | 4 (≈ 12.4 µM) |  | 
CCCCCCOc1cccc(C(N)=O)c1 | 16 (≈ 72.3 µM) | 16 (≈ 72.3 µM) | 8 | MIC (Staphylococcus aureus [3]): 32 µg/mL (≈ 145 µM); MIC (Staphylococcus aureus [6]): 32 µg/mL (≈ 145 µM); MIC (Staphylococcus aureus [4]): > 128 µg/mL; MIC (Staphylococcus aureus [7]): 16 µg/mL (≈ 72.3 µM); MIC [8]: 32 µg/mL (≈ 145 µM); MIC (Staphylococcus aureus [9]): 32 µg/mL (≈ 145 µM); MIC (Staphylococcus aureus [10]): 16 µg/mL (≈ 72.3 µM); MIC (Staphylococcus aureus [11]): 16 µg/mL (≈ 72.3 µM); MIC (Staphylococcus aureus [5]): > 128 µg/mL; MIC (Staphylococcus aureus [12]): 16 µg/mL (≈ 72.3 µM)
